These results are taken from PubChem BioAssay AID1259408 (Genetic Toxicology Data Bank (GENE-TOX), 2018).

The data set has as its system GENE-TOX genotoxicity assays, various organisms and cells. Put plainly: GENE-TOX mutagenicity studies. Conditions: for call: Assay Type: In vivo carcinogenicity studies.
Setting [1] is: Species/Cell Type: Drosophila melanogaster, Assay Type: Sex-linked recessive lethal gene mutation, Assay Code: SRL+, Evaluation Type: Evaluation A (Pre-1980).
[2] abbreviates: Species/Cell Type: Saccharomyces cerevisiae, Assay Type: Mitotic recombination or gene conversion, Assay Code: YEC+, Evaluation Type: Evaluation A (Pre-1980).
[3] abbreviates: Species/Cell Type: Drosophila melanogaster, Assay Type: Sex-linked recessive lethal gene mutation, Assay Code: SRLT, Evaluation Type: Evaluation A (Pre-1980).
The mark [4] stands for this setting: Species/Cell Type: Salmonella typhimurium (one or more of the five standard strains: TA98, TA100, TA1535, TA1537, and TA1538), Assay Type: Histidine reverse gene mutation, Ames assay, Assay Code: SAL-, Evaluation Type: Evaluation A (Pre-1980).
[5] abbreviates: Species/Cell Type: Syrian hamster embryo (SA7/SHE) cells, Assay Type: Cell transformation, viral enhanced, Assay Code: CT7+, Evaluation Type: Evaluation A (Pre-1980).
[6] abbreviates: Species/Cell Type: Chinese hamster lung (V79) cells, Assay Type: Forward gene mutation at the HPRT or ouabain locus, Assay Code: V79+, Evaluation Type: Evaluation A (Pre-1980).
[7] abbreviates: Species/Cell Type: Nonhuman, Assay Code: CCGT, Evaluation Type: Evaluation A (Pre-1980).
The mark [8] stands for this setting: Species/Cell Type: Salmonella typhimurium (one or more of the five standard strains: TA98, TA100, TA1535, TA1537, and TA1538), Assay Type: Histidine reverse gene mutation, Ames assay, Assay Code: SAL+, Evaluation Type: Evaluation A (Pre-1980).
The mark [9] stands for this setting: Species/Cell Type: Rodents, Sex: Male, Assay Type: Dominant lethal test, Assay Code: DLT-, Evaluation Type: Evaluation A (Pre-1980).
[10] abbreviates: Species/Cell Type: Saccharomyces cerevisiae, Assay Type: Mitotic recombination or gene conversion, Assay Code: YEH-, Evaluation Type: Evaluation A (Pre-1980).
Setting [11] is: Species/Cell Type: Bacillus subtilis (H17 vs M45), Assay Type: Rec-assay, spot test, DNA effects (bacterial DNA repair), Assay Code: REWT, Evaluation Type: Evaluation A (Pre-1980).
Setting [12] is: Species/Cell Type: Human, Assay Type: Sister-chromatid exchange (SCE) in vitro, Assay Code: SC1+D, Dose Response: With dose response, Evaluation Type: Evaluation B (Post-1980).
[13] abbreviates: Species/Cell Type: Mammalian polychromatic erythrocytes, Assay Type: Micronucleus test, chromosome aberrations, Assay Code: MNT+, Evaluation Type: Evaluation B (Post-1980).
Setting [14] is: Species/Cell Type: Salmonella typhimurium (one or more of the five standard strains: TA98, TA100, TA1535, TA1537, and TA1538), Assay Type: Histidine reverse gene mutation, Ames assay, Assay Code: SALT, Evaluation Type: Evaluation A (Pre-1980).
Where [15] appears, read: Species/Cell Type: Mammalian polychromatic erythrocytes, Assay Type: Micronucleus test, chromosome aberrations, Assay Code: MNTT, Evaluation Type: Evaluation B (Post-1980).

Calls of active or inactive are those of the source. The rule behind the calls is not given here.

Turning to `O=NN(CCCl)C(=O)NCCNC(=O)N(CCCl)N=O`, the mutagenic call is “active; positive” under setting [1] and “active; positive” under setting [2].

In the case of `OCc1ccc(-c2ccccc2)cc1`, the mutagenic call (Species/Cell Type: Chinese hamster ovary (CHO) cells, Assay Type: Forward gene mutation at the HPRT locus, Assay Code: CHOT, Evaluation Type: Evaluation B (Post-1980)) is on record as “no conclusion” and the mutagenic call (Species/Cell Type: Mammalian polychromatic erythrocytes, Assay Type: Micronucleus test, chromosome aberrations, Assay Code: MNT+U, Dose Response: Unconfirmed positive response, Evaluation Type: Evaluation B (Post-1980)) is “active; positive”.

For `CC1(C)S[C@@H]2[C@H](NC(=O)Cc3ccccc3)C(=O)N2[C@H]1C(=O)O`, the mutagenic call was “no conclusion” under setting [3] and “inactive; negative” under setting [4].

On to `Cc1ccc2ccc3c4ccccc4cc4ccc1c2c43`, for which, under setting [1], the mutagenic call is “active; positive”.

As for `[Cu+].[Cu].[SH-]`, the mutagenic call under setting [5] was “active; positive”.

Consider `c1cc2ccc3cc4c(c5ccc(c1)c2c35)[C@H]1O[C@H]1CC4`, for which the mutagenic call under setting [6] was “active; positive”; the mutagenic call (Species/Cell Type: Mouse prostate cells, Assay Type: Cell transformation, Assay Code: CTM-, Evaluation Type: Evaluation A (Pre-1980)) was “inactive; negative”; the mutagenic call under setting [8] is “active; positive”. The call under setting [7] is on record as “no conclusion”.

Consider `ClC1=C(Cl)[C@]2(Cl)[C@@H]3[C@@H]4C[C@@H]([C@H]5O[C@@H]45)[C@@H]3[C@@]1(Cl)C2(Cl)Cl`, for which the mutagenic call is, setting by setting: under setting [6], “active; positive”; under setting [3], “no conclusion”; under setting [9], “inactive; negative”; (Species/Cell Type: Saccharomyces cerevisiae, Assay Type: Forward and reverse gene mutation, mitotic recombination and gene conversion, host-mediated assay, Assay Code: HME-, Evaluation Type: Evaluation A (Pre-1980)) “inactive; negative”; under setting [10], “inactive; negative”; under setting [4], “inactive; negative”.

For the compound `Nc1cnn(-c2ccccc2)c(=O)c1Cl`, the mutagenic call (Species/Cell Type: Saccharomyces cerevisiae, Assay Type: Mitotic recombination or gene conversion, Assay Code: YEC-, Evaluation Type: Evaluation A (Pre-1980)) is “inactive; negative”.

As for `CN(N=O)C(=O)c1ccccc1`, the mutagenic call under setting [8] was “active; positive”.

For the compound `O=S(O)(O)=S`, the mutagenic call (Species/Cell Type: Allium cepa, Assay Type: Chromosome aberrations, Assay Code: ALC-, Evaluation Type: Evaluation A (Pre-1980)) is “inactive; negative”.

For `[Cl][Tl]`, the mutagenic call under setting [5] is “active; positive”.

As for `CCOC(=O)CC(SP(=S)(OC)OC)C(=O)OCC` (centres undefined), the mutagenic call by setting is: under setting [11], “no conclusion”; (Species/Cell Type: Drosophila melanogaster, Assay Type: Sex-linked recessive lethal gene mutation, Assay Code: SRL-, Evaluation Type: Evaluation A (Pre-1980)) “inactive; negative”; (Species/Cell Type: Escherichia coli WP2 UVRA, Assay Type: Tryptophan reverse gene mutation, Assay Code: WPU-*, Activation: With metabolic activation, Evaluation Type: Evaluation A (Pre-1980)) “inactive; negative”; (Species/Cell Type: Escherichia coli polA (W3119 vs P3478), Assay Type: Rec-assay, DNA effects (bacterial DNA repair), Assay Code: RE1T, Evaluation Type: Evaluation A (Pre-1980)) “no conclusion”; (Species/Cell Type: Hordeum vulgare (barley), Assay Type: Chromosome aberrations, Assay Code: HOC+D, Dose Response: With dose response, Evaluation Type: Evaluation A (Pre-1980)) “active; positive”; (Species/Cell Type: Human diploid fibroblasts, Assay Type: Unscheduled DNA synthesis (UDS) in vitro, DNA effects, Assay Code: UDH-, Evaluation Type: Evaluation A (Pre-1980)) “inactive; negative”. In addition, the mutagenic call by setting is: (Species/Cell Type: Human, Assay Type: Sister-chromatid exchange (SCE) in vitro, Assay Code: SC1+D, Dose Response: With dose response, Evaluation Type: Evaluation A (Pre-1980)) “active; positive”; under setting [12], “active; positive”; under setting [13], “active; positive”; (Species/Cell Type: Nonhuman, Assay Type: Sister-chromatid exchange (SCE) in vitro, Assay Code: SC2+D, Dose Response: With dose response, Evaluation Type: Evaluation B (Post-1980)) “active; positive”; under setting [10], “inactive; negative”; under setting [4], “inactive; negative”. Also, the call (Species/Cell Type: Nonhuman, Assay Code: CCG-, Evaluation Type: Evaluation A (Pre-1980)) was “inactive; negative”.

With `O[C@H]1c2ccc3cc4ccccc4cc3c2[C@@H]2OC2[C@@H]1O` (some centres undefined), the mutagenic call under setting [6] is “active; positive”.

Consider `Nc1cccc2cccnc12`, for which the mutagenic call runs as follows: under setting [3], “no conclusion”; (Species/Cell Type: Saccharomyces cerevisiae, Assay Type: Forward gene mutation, Assay Code: YEF-*, Activation: With metabolic activation, Evaluation Type: Evaluation A (Pre-1980)) “inactive; negative”; (Species/Cell Type: Saccharomyces cerevisiae, Assay Type: Mitotic recombination or gene conversion, Assay Code: YEC-*, Activation: With metabolic activation, Evaluation Type: Evaluation A (Pre-1980)) “inactive; negative”; (Species/Cell Type: Saccharomyces cerevisiae, Assay Type: Mitotic recombination or gene conversion, Assay Code: YEH-*, Activation: With metabolic activation, Evaluation Type: Evaluation A (Pre-1980)) “inactive; negative”; (Species/Cell Type: Saccharomyces cerevisiae, Assay Type: Reverse gene mutation, Assay Code: YER+, Evaluation Type: Evaluation A (Pre-1980)) “active; positive”; under setting [8], “active; positive”.

Regarding `Nc1c(N=Nc2ccc([N+](=O)[O-])cc2)c(S(=O)(=O)O)cc2cc(S(=O)(=O)O)c(N=Nc3ccccc3)c(O)c12`, the mutagenic call under setting [11] was “no conclusion”.

`COc1c(O)c2c(c3cc(C(=O)N4CCc5c4c(O)c(OC)c4[nH]c(C(=O)N6C[C@H]7C[C@@]78C6=CC(=O)c6[nH]cc(C)c68)cc54)[nH]c13)CCN2C(N)=O`: under setting [13], the mutagenic call was “active; positive”.

Take `CN[C@@H](C)Cc1ccccc1`: the mutagenic call under setting [3] is on record as “no conclusion”.

With `NCCCN1CC1`, the mutagenic call (Species/Cell Type: Schizosaccharomyces pombe, Assay Type: Reverse gene mutation, Assay Code: YEZ+, Evaluation Type: Evaluation A (Pre-1980)) was “active; positive”.

Take `CC(=O)NCc1nc(-c2ccc([N+](=O)[O-])o2)no1`: the mutagenic call under setting [8] is “active; positive”.

As for `ClC1=C(Cl)[C@]2(Cl)[C@@H]3[C@@H](Cl)[C@H]4O[C@H]4[C@@H]3[C@@]1(Cl)C2(Cl)Cl`, the mutagenic call is, setting by setting: under setting [3], “no conclusion”; under setting [9], “inactive; negative”; under setting [14], “no conclusion”.

For `CCOC(=O)COc1ccc(Cl)cc1CSC(=N)N`, the mutagenic call (Species/Cell Type: Saccharomyces cerevisiae, Assay Type: Reverse gene mutation, Assay Code: YERT, Evaluation Type: Evaluation A (Pre-1980)) is “no conclusion”.

On to `Cc1c2ccccc2c(C)c2c1cc(O)c1ccccc12`, for which the mutagenic call (Species/Cell Type: Chinese hamster lung (V79) cells, Assay Type: Forward gene mutation at the HPRT or ouabain locus, Assay Code: V79-*, Activation: With metabolic activation, Evaluation Type: Evaluation A (Pre-1980)) is “inactive; negative”. For the same compound, the call under setting [7] is recorded as “no conclusion”.

Regarding `CC(C)c1ccccc1OC(=O)N(C)N=O`, the mutagenic call (Species/Cell Type: Bacillus subtilis (H17 vs M45T), Assay Type: Rec-assay, spot test, DNA effects (bacterial DNA repair), Assay Code: REX+, Evaluation Type: Evaluation A (Pre-1980)) is “active; positive” and the mutagenic call (Species/Cell Type: Escherichia coli WP2, Assay Type: Tryptophan reverse gene mutation, Assay Code: WP2+, Evaluation Type: Evaluation A (Pre-1980)) was “active; positive”.

Turning to `Cc1ccccc1N=Nc1ccc(N=Nc2c(O)ccc3ccccc23)c(C)c1`, the mutagenic call under setting [14] was “no conclusion” and the mutagenic call under setting [5] was “active; positive”.

Regarding `O=C(C#Cc1ccc([N+](=O)[O-])o1)NC1CCCCC1`, the mutagenic call (Species/Cell Type: Neurospora crassa, Assay Type: Forward gene mutation, Assay Code: NEF-, Evaluation Type: Evaluation A (Pre-1980)) was “inactive; negative”.

Regarding `CCNP(=S)(OC)O/C(C)=C/C(=O)OC(C)C` (centres undefined) (tested in a mixture with another compound), the mutagenic call under setting [15] is given as “no conclusion”.

As for `Cc1ccc(NC(=O)N(CCCl)N=O)cc1NC(=O)N(CCCl)N=O`, under setting [2], the mutagenic call was “active; positive”.

In the case of `Nc1ccc(-c2nc(N3CCOCC3)c3ccccc3n2)s1`, the mutagenic call under setting [14] was “no conclusion”.

As to `CC(=O)OCCN(CCOC(C)=O)N=O`, the mutagenic call under setting [15] is on record as “no conclusion”.

Turning to `C=Cc1cc(C)cc(C)c1`, the mutagenic call by setting is: (Species/Cell Type: Human lymphocytes, Assay Type: Sister-chromatid exchange (SCE) in vitro, Assay Code: SCL+D, Dose Response: With dose response, Evaluation Type: Evaluation B (Post-1980)) “active; positive”; under setting [12], “active; positive”.
